Experimental data published in patent publication US12077503B2, “Substituted cyclic amides and their use as herbicides” (FMC CORPORATION, priority 2015, dated 2024).

Tests used:
Type in all cases: in vivo
[1] = tested on: giant foxtail (Setaria faberii); assay: Test A preemergence; details: Setaria faberi, pre-emergence, 240 h
How it was run: (§1)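 Each rating is a visual injury score from 0 to 100 given about 10 d after treatment, judged against untreated controls kept alongside in the greenhouse. In loam soil–sand blend, seeds got a preemergence directed soil spray, while postemergence plants were 2 to 10 cm tall at spraying.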

[2] = tested on: ragweed (common ragweed, Ambrosia elatior); assay: Test A preemergence; details: Ambrosia artemisiifolia, pre-emergence, 240 h
How it was run: as §1

[3] = tested on: barnyardgrass (Echinochloa crus-galli); assay: Test A preemergence; details: Echinochloa crus-galli, pre-emergence, 240 h
How it was run: as §1

[4] = tested on: pigweed (Amaranthus retroflexus); assay: Test A preemergence; details: Amaranthus retroflexus, pre-emergence, 240 h
[5] = tested on: ryegrass, Italian (Italian ryegrass, Lolium multiflorum); assay: Test A preemergence; details: Lolium multiflorum, pre-emergence, 240 h
How it was run: as §1

[6] = tested on: Kochia (Kochia scoparia); assay: Test A preemergence; details: Bassia scoparia, pre-emergence, 240 h
How it was run: as §1

[7] = tested on: giant foxtail (Setaria faberii); assay: Test A postemergence; details: Setaria faberi, post-emergence, 240 h, postemergence, approx. 10 d
How it was run: as §1

[8] = tested on: ragweed (common ragweed, Ambrosia elatior); assay: Test A postemergence; details: Ambrosia artemisiifolia, post-emergence, 240 h, postemergence, approx. 10 d
How it was run: as §1

[9] = tested on: barnyardgrass (Echinochloa crus-galli); assay: Test A postemergence; details: Echinochloa crus-galli, post-emergence, 240 h, read-out: Plant response rating, Barnyardgrass
How it was run: as §1

[10] = tested on: wheat (Triticum aestivum); assay: Test A postemergence; details: Triticum aestivum, post-emergence, 240 h, postemergence, approx. 10 d
How it was run: as §1

[11] = tested on: pigweed (Amaranthus retroflexus); assay: Test A postemergence; details: Amaranthus retroflexus, post-emergence, 240 h, postemergence, approx. 10 d
How it was run: as §1

[12] = tested on: Galium (catchweed bedstraw, Galium aparine); assay: Test A postemergence; details: Galium, post-emergence, 240 h, postemergence, approx. 10 d
How it was run: as §1

[13] = tested on: ryegrass, Italian (Italian ryegrass, Lolium multiflorum); assay: Test A postemergence; details: Lolium multiflorum, post-emergence, 240 h, postemergence, approx. 10 d
How it was run: as §1

[14] = tested on: Kochia (Kochia scoparia); assay: Test A postemergence; details: Bassia scoparia, post-emergence, 240 h, postemergence, approx. 10 d
How it was run: as §1

[15] = tested on: corn (Zea mays); assay: Test A postemergence; details: Zea mays, post-emergence, 240 h
How it was run: as §1

[16] = 125 g ai/ha, Postemergence, visual injury after approximately 10 d, 0 to 100 scale where 0 is no effect and 100 is complete control
[17] = 500 g ai/ha, postemergence, visual injury, 0 to 100 scale (0 no effect, 100 complete control), approx. 10 d

Question: Which results are given for `Cc1ccc([C@H]2CNC(=O)[C@@H]2C(=O)Nc2ccccc2F)cc1C` [Compound 1033]?
Answer: pest or weed control at 125 g/ha ([1]; 125 g ai/ha, Preemergence, visual injury rating after approximately 10 d, read-out: Foxtail, Giant plant response rating (0 to 100 scale, 0 is no effect, 100 is complete control)): 70%; pest or weed control at 500 g/ha ([1]; 500 g ai/ha, preemergence, visual injury rating about 10 d after treatment, 0 to 100 scale (0 no effect, 100 complete control), read-out: Foxtail, Giant plant response rating): 90%; pest or weed control at 125 g/ha ([2]; 125 g ai/ha, Preemergence, visual injury rating after approximately 10 d, read-out: Ragweed plant response rating (0 to 100 scale, 0 is no effect, 100 is complete control)): 0%; pest or weed control at 500 g/ha ([2]; 500 g ai/ha, preemergence, visual injury rating about 10 d after treatment, 0 to 100 scale (0 no effect, 100 complete control), read-out: Ragweed plant response rating): 10%; pest or weed control at 125 g/ha ([3]; 125 g ai/ha, Preemergence, visual injury rating after approximately 10 d, read-out: Barnyardgrass plant response rating (0 to 100 scale, 0 is no effect, 100 is complete control)): 90%; pest or weed control at 500 g/ha ([3]; 500 g ai/ha, preemergence, visual injury rating about 10 d after treatment, 0 to 100 scale (0 no effect, 100 complete control), read-out: Barnyardgrass plant response rating): 90%; pest or weed control at 125 g/ha ([4]; 125 g ai/ha, Preemergence, visual injury rating after approximately 10 d, read-out: Pigweed plant response rating (0 to 100 scale, 0 is no effect, 100 is complete control)): 0%; pest or weed control at 500 g/ha ([4]; 500 g ai/ha, preemergence, visual injury rating about 10 d after treatment, 0 to 100 scale (0 no effect, 100 complete control), read-out: Pigweed plant response rating): 0%; pest or weed control at 125 g/ha ([5]; 125 g ai/ha, Preemergence, visual injury rating after approximately 10 d, read-out: Ryegrass, Italian plant response rating (0 to 100 scale, 0 is no effect, 100 is complete control)): 0%; pest or weed control at 500 g/ha ([5]; 500 g ai/ha, preemergence, visual injury rating about 10 d after treatment, 0 to 100 scale (0 no effect, 100 complete control), read-out: Ryegrass, Italian plant response rating): 50%; pest or weed control at 125 g/ha ([6]; 125 g ai/ha, Preemergence, visual injury rating after approximately 10 d, read-out: Kochia plant response rating (0 to 100 scale, 0 is no effect, 100 is complete control)): 0%; pest or weed control at 500 g/ha ([6]; 500 g ai/ha, preemergence, visual injury rating about 10 d after treatment, 0 to 100 scale (0 no effect, 100 complete control), read-out: Kochia plant response rating): 60%; pest or weed control at 125 g/ha ([7]; 125 g ai/ha, visual injury on 0 to 100 scale (0 no effect, 100 complete control), read-out: Foxtail, Giant plant response rating): 30%; pest or weed control at 500 g/ha ([7]; 500 g ai/ha, visual injury, 0 to 100 scale (0 no effect, 100 complete control), read-out: Plant response rating, Foxtail, Giant): 80%; pest or weed control at 125 g/ha ([8]; 125 g ai/ha, visual injury on 0 to 100 scale (0 no effect, 100 complete control), read-out: Ragweed plant response rating): 0%; pest or weed control at 500 g/ha ([8]; 500 g ai/ha, visual injury, 0 to 100 scale (0 no effect, 100 complete control), read-out: Plant response rating, Ragweed): 30%; pest or weed control at 125 g/ha [9, 16]: 90%; pest or weed control at 500 g/ha [9, 17]: 90%; plant injury at 125 g/ha ([10]; 125 g ai/ha, visual injury on 0 to 100 scale (0 no effect, 100 complete control), read-out: Wheat plant response rating): 0%; plant injury at 500 g/ha ([10]; 500 g ai/ha, visual injury, 0 to 100 scale (0 no effect, 100 complete control), read-out: Plant response rating, Wheat): 0%; pest or weed control at 125 g/ha ([11]; 125 g ai/ha, visual injury on 0 to 100 scale (0 no effect, 100 complete control), read-out: Pigweed plant response rating): 0%; pest or weed control at 500 g/ha ([11]; 500 g ai/ha, visual injury, 0 to 100 scale (0 no effect, 100 complete control), read-out: Plant response rating, Pigweed): 0%; pest or weed control at 125 g/ha ([12]; 125 g ai/ha, visual injury on 0 to 100 scale (0 no effect, 100 complete control), read-out: Galium plant response rating): 40%; pest or weed control at 500 g/ha ([12]; 500 g ai/ha, visual injury, 0 to 100 scale (0 no effect, 100 complete control), read-out: Plant response rating, Galium): 60%; pest or weed control at 125 g/ha ([13]; 125 g ai/ha, visual injury on 0 to 100 scale (0 no effect, 100 complete control), read-out: Ryegrass, Italian plant response rating): 0%; pest or weed control at 500 g/ha ([13]; 500 g ai/ha, visual injury, 0 to 100 scale (0 no effect, 100 complete control), read-out: Plant response rating, Ryegrass, Italian): 20%; pest or weed control at 125 g/ha ([14]; 125 g ai/ha, visual injury on 0 to 100 scale (0 no effect, 100 complete control), read-out: Kochia plant response rating): 0%; pest or weed control at 500 g/ha ([14]; 500 g ai/ha, visual injury, 0 to 100 scale (0 no effect, 100 complete control), read-out: Plant response rating, Kochia): 0%; Corn plant response rating (crop injury, 0 = no effect, 100 = complete kill) at 125 g/ha [15, 16]: 0%; Corn plant response rating (crop injury, 0 = no effect, 100 = complete kill) at 500 g/ha [15, 17]: 40%
